Assay results taken from patent US20250098679A1, “HERBICIDAL PYRIDONE DERIVATIVES” (SYNGENTA CROP PROTECTION AG, priority 2021, published 2025).

Experiments:
Assay type in all cases: in vivo
Details in all cases: evaluated after 13 days
[1] = test system: Setaria faberi (SETFA); assay: Pre-emergence Test, Setaria faberi (SETFA)
[2] = test system: Amaranthus palmeri (AMAPA); assay: Post-emergence Test, Amaranthus palmeri (AMAPA); set-up: key: 5=81-100%, 4=61-80%, 3=41-60%, 2=21-40%, 1=0-20% damage
Outline: (§1)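 Application was a spray of acetone/water (50:50) with 0.5% Tween 20 onto pots of test species sown in standard soil. Unless otherwise stated, the rate was 1000 g/ha. After 13 days under glasshouse conditions (24/16 °C, 65% humidity), injury was scored from 1 (0-20%) to 5 (81-100%).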

[3] = test system: Setaria faberi (SETFA); assay: Post-emergence Test, Setaria faberi (SETFA); set-up: key to percentage damage caused to the plant, SETFA (five-point scale): 5=81-100%, 4=61-80%, 3=41-60%, 2=21-40%, 1=0-20% damage
Outline: as §1

[4] = test system: Echinochloa crus-galli (ECHCG); assay: Pre-emergence Test, Echinochloa crus-galli (ECHCG)
[5] = test system: Echinochloa crus-galli (ECHCG); assay: Post-emergence Test, Echinochloa crus-galli (ECHCG); set-up: key to percentage damage caused to the plant, ECHCG (five-point scale): 5=81-100%, 4=61-80%, 3=41-60%, 2=21-40%, 1=0-20% damage
Outline: as §1

[6] = test system: Amaranthus retoflexus (AMARE); assay: Post-emergence Test, Amaranthus retoflexus (AMARE); set-up: key to percentage damage caused to the plant, AMARE (five-point scale): 5=81-100%, 4=61-80%, 3=41-60%, 2=21-40%, 1=0-20% damage
Outline: as §1

[7] = test system: Amaranthus retoflexus (AMARE); assay: Pre-emergence Test, Amaranthus retoflexus (AMARE)
[8] = test system: Ipomoea hederacea (IPOHE); assay: Pre-emergence Test, Ipomoea hederacea (IPOHE)
[9] = test system: Zea mays (ZEAMX); assay: Pre-emergence Test, Zea mays (ZEAMX)
[10] = test system: Ipomoea hederacea (IPOHE); assay: Post-emergence Test, Ipomoea hederacea (IPOHE); set-up: key to percentage damage caused to the plant, IPOHE (five-point scale): 5=81-100%, 4=61-80%, 3=41-60%, 2=21-40%, 1=0-20% damage
Outline: as §1

[11] = test system: Zea mays (ZEAMX); assay: Post-emergence Test, Zea mays (ZEAMX); set-up: key to percentage damage caused to the plant, ZEAMX (five-point scale): 5=81-100%, 4=61-80%, 3=41-60%, 2=21-40%, 1=0-20% damage
Outline: as §1

[12] = test system: Amaranthus palmeri (AMAPA); assay: Pre-emergence Test, Amaranthus palmeri (AMAPA)

SMILES	Pre-emergence Test SETFA, percentage damage caused to the plant (five-point scale) ([1]; 1000 g/ha)	percentage damage caused to the plant, AMAPA (five-point scale) ([2]; 1000 g/ha)	percentage damage caused to the plant, SETFA (five-point scale) ([3]; 1000 g/ha)	Pre-emergence Test ECHCG, percentage damage caused to the plant (five-point scale) ([4]; 1000 g/ha)	percentage damage caused to the plant, ECHCG (five-point scale) ([5]; 1000 g/ha)	percentage damage caused to the plant, AMARE (five-point scale) ([6]; 1000 g/ha)	Pre-emergence Test AMARE, percentage damage caused to the plant (five-point scale) ([7]; 1000 g/ha)	Pre-emergence Test IPOHE, percentage damage caused to the plant (five-point scale) ([8]; 1000 g/ha)	Pre-emergence Test ZEAMX, percentage damage caused to the plant (five-point scale) ([9]; 1000 g/ha)	percentage damage caused to the plant, IPOHE (five-point scale) ([10]; 1000 g/ha)	percentage damage caused to the plant, ZEAMX (five-point scale) ([11]; 1000 g/ha)	Pre-emergence Test AMAPA, percentage damage caused to the plant (five-point scale) ([12]; 1000 g/ha)	percentage damage caused to the plant, AMAPA (five-point scale) ([2]; 250 g/Ha)	percentage damage caused to the plant, SETFA (five-point scale) ([3]; 250 g/Ha)	percentage damage caused to the plant, ECHCG (five-point scale) ([5]; 250 g/Ha)	percentage damage caused to the plant, AMARE (five-point scale) ([6]; 250 g/Ha)	percentage damage caused to the plant, IPOHE (five-point scale) ([10]; 250 g/Ha)	percentage damage caused to the plant, ZEAMX (five-point scale) ([11]; 250 g/Ha)	further results
CCOC(=O)c1c(-c2ccc(Cl)c(Cl)c2)n(CC)c(Cn2cnc(C(F)(F)F)n2)cc1=O [Compound 12, ethyl 2-(3,4-dichlorophenyl)-1-ethyl-4-oxo-6-[[3-(trifluoromethyl)-1,2,4-triazol-1-yl]methane]pyridine-3-carboxylate]	0	2 (2=21-40%)	1 (1=0-20%)	0	1 (1=0-20%)	1 (1=0-20%)	0	0	0	2 (2=21-40%)	1 (1=0-20%)	0	–	–	–	–	–	–	–
CCn1c(Cn2cc(C(F)(F)F)cn2)cc(=O)c(C(=O)O)c1-c1ccc(Cl)c(Cl)c1 [Compound 6, 2-(3,4-dichlorophenyl)-1-ethyl-4-oxo-6-[[4-(trifluoromethyl)pyrazol-1-yl]methyl]pyridine-3-carboxylic acid]	4 (4=61-80%)	2 (2=21-40%)	4 (4=61-80%)	3 (3=41-60%)	4 (4=61-80%)	0	0	2 (2=21-40%)	0	1 (1=0-20%)	4 (4=61-80%)	–	0	0	3 (3=41-60%)	1 (1=0-20%)	1 (1=0-20%)	0	Pre-emergence Test SETFA, percentage damage caused to the plant (five-point scale) ([1]; 250 g/Ha (*)): 2 (2=21-40%); Pre-emergence Test ECHCG, percentage damage caused to the plant (five-point scale) ([4]; 250 g/Ha (*)): 3 (3=41-60%); Pre-emergence Test AMARE, percentage damage caused to the plant (five-point scale) ([7]; 250 g/Ha (*)): 0; Pre-emergence Test IPOHE, percentage damage caused to the plant (five-point scale) ([8]; 250 g/Ha (*)): 1 (1=0-20%); Pre-emergence Test ZEAMX, percentage damage caused to the plant (five-point scale) ([9]; 250 g/Ha (*)): 0; Pre-emergence Test AMAPA, percentage damage caused to the plant (five-point scale) ([12]; 250 g/Ha (*)): 1 (1=0-20%)
CCn1c(Cn2ccc(C(F)(F)F)n2)cc(=O)c(C(=O)O)c1-c1ccc(Cl)c(F)c1 [Compound 30, 2-(4-chloro-3-fluoro-phenyl)-1-ethyl-4-oxo-6-[[3-(trifluoromethyl)pyrazol-1-yl]methyl]pyridine-3-carboxylic acid]	5 (5=81-100%)	2 (2=21-40%)	5 (5=81-100%)	5 (5=81-100%)	4 (4=61-80%)	4 (4=61-80%)	0	4 (4=61-80%)	5 (5=81-100%)	2 (2=21-40%)	4 (4=61-80%)	1 (1=0-20%)	0	4 (4=61-80%)	3 (3=41-60%)	1 (1=0-20%)	4 (4=61-80%)	3 (3=41-60%)	–
